Data as given in patent US4792569A, “Anticonvulsant phenethyl sulfamates” (McNeilab, Inc., priority 1987, dated 1988).

System: tonic extensor seizure
Test: maximal electroshock test (MES), block of tonic extensor seizure in mice
Format: in vivo, male albino mice of the Swiss Webster strain
Procedure: The compounds of formula (I) are useful as anticonvulsant agents. The anticonvulsant activity of the subject compounds was determined using a standard "maximal electroshock test" (MES). In this test, activity is indicated by a block of the tonic extensor seizure caused by application of an electric shock to mice via corneal electrodes, as described by Swinyard et al. in J. Pharmacol. Exptl. Therap. 106, 319 (1952). A more recent description of current anticonvulsant drug screening is given in Swinyard et al. in Epilepsia 19, 409 (1978). Non-fasted male albino mice of the Swiss Webster strain (Royal-Hart Laboratories, New Hampton, N.Y.) weighing 18-24 grams were used in this test. Six to eight groups of ten mice each were used per ED50 determination. The test compounds were administered as aqueous solutions or suspensions prepared with Tween 80 and water. Testing was conducted at 30 minutes following intraperitoneal injection and at 60 minutes following oral administration of the test compound. A group of ten mice injected with saline 10 ml/kg i.p. and tested 30 minutes later served as controls. ED50 's were calculated using a computerized probit analysis procedure.

SMILES	MES Test % Inhibition (100 mg/kg, 30 min i.p.) [%]	MES Test % Inhibition (200 mg/kg, 60 min p.o.) [%]	MES Test % Inhibition (500 mg/kg i.p. in 30 min) [%]
NS(=O)(=O)OCCc1ccccc1 [Example 1b, Phenethylsulfamate]	90	100	
NS(=O)(=O)OCCc1cccc(C(F)(F)F)c1 [Example 2, 3-(Trifluoromethyl)phenethylsulfamate]	70	100	
COc1ccc(CCOS(N)(=O)=O)cc1OC [Example 3, 3,4-Dimethoxyphenethyl sulfamate]			30
Cc1ccccc1CCOS(N)(=O)=O [Example 5, 2-Methylphenethyl sulfamate]	90	70	
NS(=O)(=O)OCCc1cccc([N+](=O)[O-])c1 [Example 6, 3-Nitrophenethylsulfamate]	80	40	
